Results on twelve molecules are retold here after patent US10899737B2, “Piperazine carbamates and methods of making and using same” (Lundbeck La Jolla Research Center, Inc., priority 2016, dated 2021).

As a reminder, the IC50 is the concentration that inhibits the measured activity by half. A low value points to inhibition by little substance.

What all share (type): biochemical
Assay [1] deals with T1, ABHD6 (Homo sapiens, UniProt Q9BV23).
T1 construct: Proteomes (human prefrontal cortex or cell membrane fractions); endogenous in cells; human prefrontal cortex
T1 sequence (Q9BV23 1-337): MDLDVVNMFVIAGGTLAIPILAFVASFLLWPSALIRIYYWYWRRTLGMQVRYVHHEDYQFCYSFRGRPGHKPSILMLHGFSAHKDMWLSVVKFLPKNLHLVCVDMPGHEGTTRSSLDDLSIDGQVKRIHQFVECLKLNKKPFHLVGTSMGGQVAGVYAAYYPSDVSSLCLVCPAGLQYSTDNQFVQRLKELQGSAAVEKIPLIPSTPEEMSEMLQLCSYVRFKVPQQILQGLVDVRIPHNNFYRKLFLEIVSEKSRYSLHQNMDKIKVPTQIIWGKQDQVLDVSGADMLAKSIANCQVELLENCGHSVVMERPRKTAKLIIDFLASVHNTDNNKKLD
As to the kind of experiment: In vitro competitive activity-based protein profiling (human), ABHD6. Particulars: human PC3. Here is the method:
(§1) In Vitro Competitive Activity-Based Protein Profiling (Human).
(§2) Proteomes (human prefrontal cortex or cell membrane fractions) (50 μL, 1.0-2.0 mg/mL total protein concentration) were preincubated with varying concentrations of inhibitors at 37° C. After 30 min, FP-Rh or JW912 (1.0 μL, 50 μM in DMSO) was added and the mixture was incubated for another 30 min at room temperature. Reactions were quenched with SDS loading buffer (15 μL-4×) and run on SDS-PAGE. Following gel imaging, serine hydrolase activity was determined by measuring fluorescent intensity of gel bands corresponding to MAGL and ABHD6 using ImageJ 1.49 k software.

Assay [2] has as its target T2, MAGL (Homo sapiens, UniProt Q99685).
T2 construct: Proteomes (human prefrontal cortex or cell membrane fractions); from tissue
T2 sequence (Q99685 1-303): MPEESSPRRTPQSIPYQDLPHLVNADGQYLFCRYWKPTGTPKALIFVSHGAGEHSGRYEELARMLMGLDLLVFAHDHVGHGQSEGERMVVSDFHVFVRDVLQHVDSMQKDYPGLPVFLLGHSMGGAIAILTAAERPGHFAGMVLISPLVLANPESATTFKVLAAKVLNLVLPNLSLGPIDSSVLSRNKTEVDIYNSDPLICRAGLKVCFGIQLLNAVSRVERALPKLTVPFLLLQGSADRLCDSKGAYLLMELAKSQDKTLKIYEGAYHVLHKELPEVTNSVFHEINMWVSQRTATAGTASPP
Description: In vitro competitive activity-based protein profiling (human), MAGL. Particulars: for inhibition at 1 µM: 1 μM inhibitor, human proteome, 30 min preincubation at 37° C, read-out: MAGL % inh. 1 μM (human); for IC50: human PC3. Here is the method: as §1, §2

Assay [3] addresses T3, ABHD6 (Mus musculus, UniProt Q8R2Y0).
T3 construct: Proteomes (mouse brain membrane fraction or cell lysates); from tissue; host or cells: mouse brain membrane fraction or cell lysates
T3 sequence (Q8R2Y0 1-336): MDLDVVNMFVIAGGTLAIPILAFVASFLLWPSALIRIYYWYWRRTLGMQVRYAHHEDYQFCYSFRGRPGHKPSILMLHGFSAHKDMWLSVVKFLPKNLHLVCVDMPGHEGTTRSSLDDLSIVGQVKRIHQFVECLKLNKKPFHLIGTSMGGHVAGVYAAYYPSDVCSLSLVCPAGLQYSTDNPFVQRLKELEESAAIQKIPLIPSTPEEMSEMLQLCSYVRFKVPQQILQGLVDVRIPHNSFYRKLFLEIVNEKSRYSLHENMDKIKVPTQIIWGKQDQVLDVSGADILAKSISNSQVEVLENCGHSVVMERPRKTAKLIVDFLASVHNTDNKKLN
Description: In vitro competitive activity-based protein profiling (mouse), ABHD6. Particulars: 1 μM inhibitor, mouse brain membrane fraction or cell lysates; read-out: ABHD6 % inh. 1 μM (mouse). Here is the method:
(§3) In Vitro Competitive Activity-Based Protein Profiling (Mouse).
(§4) Proteomes (mouse brain membrane fraction or cell lysates) (50 μL, 1.0 mg/mL total protein concentration) were preincubated with varying concentrations of inhibitors at 37° C. After 30 min, FP-Rh (1.0 μL, 50 μM in DMSO) was added and the mixture was incubated for another 30 min at 37° C. Reactions were quenched with SDS loading buffer (50 μL-4×) and run on SDS-PAGE. Following gel imaging, serine hydrolase activity was determined by measuring fluorescent intensity of gel bands corresponding to MAGL and ABHD6 using ImageJ 1.49 k software. Data from this assay is shown in Table 1 (% inhibition at 1 μM).

For assay [4], the target named is T4, MAGL (Mus musculus, UniProt O35678).
T4 construct: Proteomes (mouse brain membrane fraction or cell lysates); from tissue; host or cells: mouse brain membrane fraction or cell lysates
T4 sequence (O35678 1-303): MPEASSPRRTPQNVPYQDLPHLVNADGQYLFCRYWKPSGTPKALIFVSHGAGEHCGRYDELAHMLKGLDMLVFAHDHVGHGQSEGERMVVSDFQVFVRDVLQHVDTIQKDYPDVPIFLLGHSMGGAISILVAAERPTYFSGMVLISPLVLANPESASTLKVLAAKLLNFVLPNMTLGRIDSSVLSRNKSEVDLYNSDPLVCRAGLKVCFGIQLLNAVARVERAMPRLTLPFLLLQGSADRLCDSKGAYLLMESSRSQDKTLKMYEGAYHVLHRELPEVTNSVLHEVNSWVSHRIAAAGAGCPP
As to the kind of experiment: In vitro competitive activity-based protein profiling (mouse), MAGL. Particulars: for inhibition at 1 µM: 1 μM inhibitor, mouse brain membrane fraction or cell lysates, read-out: MAGL % inh. 1 μM (mouse). Here is the method: as §3, §4

With `Cc1ccc(CN2CCN(C(=O)OC(C(F)(F)F)C(F)(F)F)CC2)c(C2(C(=O)O)CCCC2)c1` [Example 14, 1-(2-((4-(((1,1,1,3,3,3-Hexafluoropropan-2-yl)oxy)carbonyl)piperazin-1-yl)methyl)-5-methylphenyl)cyclopentane-1-carboxylic Acid], the IC50 was 1 to 10 µM at ABHD6 [1] and ≤ 0.1 µM on MAGL [2]. In addition, the inhibition at 1 µM on MAGL [2] was ≥ 75%; on ABHD6 [3] it was 0 to 25%; on MAGL [4] it was ≥ 75%.
In the case of `CC(C)(C(=O)O)N1CC2CN(c3cc(C(F)(F)F)ccc3CN3CCN(C(=O)OC(C(F)(F)F)C(F)(F)F)CC3)CC2C1` (stereo not shown) [Example 16, 2-(5-(2-((4-(((1,1,1,3,3,3-Hexafluoropropan-2-yl)oxy)carbonyl)piperazin-1-yl)methyl)-5-(trifluoromethyl)phenyl)hexahydropyrrolo[3,4-c]pyrrol-2(1H)-yl)-2-methylpropanoic Acid], the IC50 is 1 to 10 µM on ABHD6 [1] and ≤ 0.1 µM at MAGL [2]. Also, the inhibition at 1 µM is ≥ 75% on MAGL [2], 0 to 25% on ABHD6 [3] and ≥ 75% on MAGL [4].
In the case of `O=C(O)CN1CCN(C(=O)c2cc(C(F)(F)F)ccc2CN2CCN(C(=O)OC(C(F)(F)F)C(F)(F)F)CC2)CC1` [Example 28, 2-(4-(2-((4-(((1,1,1,3,3,3-Hexafluoropropan-2-yl)oxy)carbonyl)piperazin-1-yl)methyl)-5-(trifluoromethyl)benzoyl)piperazin-1-yl)acetic Acid], the IC50 at ABHD6 [1] lay in the range of 1 to 10 µM; at MAGL [2], 0.1 to 1 µM. Also, the inhibition at 1 µM was ≥ 75% at MAGL [2], 25 to 50% at ABHD6 [3] and ≥ 75% at MAGL [4].
`CC1(C(=O)O)CCN(c2cc(CN3CCN(C(=O)OC(C(F)(F)F)C(F)(F)F)CC3)cc(C(F)(F)F)c2)CC1` [Example 29, 1-(3-((4-(((1,1,1,3,3,3-Hexafluoropropan-2-yl)oxy)carbonyl)piperazin-1-yl)methyl)-5-(trifluoromethyl)phenyl)-4-methylpiperidine-4-carboxylic Acid]: the IC50 on ABHD6 [1] and on MAGL [2] was ≤ 0.1 µM in each case. Also, the inhibition at 1 µM on MAGL [2], at ABHD6 [3] and at MAGL [4] was ≥ 75% throughout.
On to `O=C(OC(C(F)(F)F)C(F)(F)F)N1CCN(Cc2cc(Cl)cc(C3(C(=O)O)CCCC3)c2)CC1` [Example 32, 1-(3-Chloro-5-((4-(((1,1,1,3,3,3-hexafluoropropan-2-yl)oxy)carbonyl)piperazin-1-yl)methyl)phenyl)cyclopentane-1-carboxylic Acid], for which the results for the IC50 at ABHD6 [1] and at MAGL [2] were 0.1 to 1 µM and ≤ 0.1 µM, respectively. The inhibition at 1 µM at MAGL [2], at ABHD6 [3] and at MAGL [4] was ≥ 75% in each case.
With `O=C(O)CN1CCCC1C1CCN(c2cc(Cl)ccc2CN2CCN(C(=O)OC(C(F)(F)F)C(F)(F)F)CC2)CC1` (stereo not shown) [Example 34, 2-(2-(1-(5-Chloro-2-((4-(((1,1,1,3,3,3-hexafluoropropan-2-yl)oxy)carbonyl)piperazin-1-yl)methyl)phenyl)piperidin-4-yl)pyrrolidin-1-yl)acetic Acid], the IC50 on ABHD6 [1] was 1 to 10 µM; at MAGL [2], ≤ 0.1 µM. Besides, the inhibition at 1 µM on MAGL [2] was ≥ 75%; on ABHD6 [3], 50 to 75%; at MAGL [4], ≥ 75%.
In the case of `O=C(OC(C(F)(F)F)C(F)(F)F)N1CCN(Cc2ccc(C(F)(F)F)c(C3(C(=O)O)CCCC3)c2)CC1` [Example 37, 1-(5-((4-(((1,1,1,3,3,3-hexafluoropropan-2-yl)oxy)carbonyl)piperazin-1-yl)methyl)-2-(trifluoromethyl)phenyl)cyclopentane-1-carboxylic acid], the IC50 is 0.1 to 1 µM on ABHD6 [1] and ≤ 0.1 µM on MAGL [2]. Further, the inhibition at 1 µM at MAGL [2], at ABHD6 [3] and on MAGL [4] was ≥ 75% throughout.
For `O=C(O)C1CCN(Cc2cc(C(F)(F)F)ccc2CN2CCN(C(=O)OC(C(F)(F)F)C(F)(F)F)CC2)CC1` [Example 41, 1-(2-((4-(((1,1,1,3,3,3-hexafluoropropan-2-yl)oxy)carbonyl)piperazin-1-yl)methyl)-5-(trifluoromethyl)benzyl)piperidine-4-carboxylic acid], the IC50 on ABHD6 [1] fell in the range of 1 to 10 µM; at MAGL [2], 0.1 to 1 µM. The inhibition at 1 µM is ≥ 75% at MAGL [2], 0 to 25% on ABHD6 [3] and ≥ 75% on MAGL [4].
Turning to `O=C(O)CN1CC2(CCN(c3cc(Cl)ccc3CN3CCN(C(=O)OC(C(F)(F)F)C(F)(F)F)CC3)CC2)C1` [Example 47, 2-(7-(5-chloro-2-((4-(((1,1,1,3,3,3-hexafluoropropan-2-yl)oxy)carbonyl)piperazin-1-yl)methyl)phenyl)-2,7-diazaspiro[3.5]nonan-2-yl)acetic acid], the results for the IC50 on ABHD6 [1], at MAGL [2] and on MAGL [4] (mouse proteome) were 1 to 10 µM, ≤ 0.1 µM and ≤ 0.1 µM, respectively. The inhibition at 1 µM at MAGL [2] was ≥ 75%; at ABHD6 [3] it was 0 to 25%; on MAGL [4] it was ≥ 75%.
As for `O=C(O)CN1CCC2(C1)CN(c1cc(Cl)ccc1CN1CCN(C(=O)OC(C(F)(F)F)C(F)(F)F)CC1)C2` [Example 48, 2-(2-(5-chloro-2-((4-(((1,1,1,3,3,3-hexafluoropropan-2-yl)oxy)carbonyl)piperazin-1-yl)methyl)phenyl)-2,6-diazaspiro[3.4]octan-6-yl)acetic acid], the IC50 was 1 to 10 µM at ABHD6 [1] and ≤ 0.1 µM at MAGL [2]. Moreover, the inhibition at 1 µM was ≥ 75% on MAGL [2], 0 to 25% at ABHD6 [3] and ≥ 75% on MAGL [4].
Turning to `O=C(O)CNC1CCN(c2cc(C(F)(F)F)ccc2CN2CCN(C(=O)OC(C(F)(F)F)C(F)(F)F)CC2)CC1` [Example 49, (1-(2-((4-(((1,1,1,3,3,3-hexafluoropropan-2-yl)oxy)carbonyl)piperazin-1-yl)methyl)-5-(trifluoromethyl)phenyl)piperidin-4-yl)glycine], the IC50 was 1 to 10 µM on ABHD6 [1] and ≤ 0.1 µM at MAGL [2]. Further, the inhibition at 1 µM on MAGL [2] is ≥ 75%; on ABHD6 [3] it was 0 to 25%; at MAGL [4], ≥ 75%.
Turning to `CCCC1(C(=O)O)CCN(c2cc(CN3CCN(C(=O)OC(C(F)(F)F)C(F)(F)F)CC3)cc(C(F)(F)F)c2)CC1` [Example 52, 1-(3-((4-(((1,1,1,3,3,3-hexafluoropropan-2-yl)oxy)carbonyl)piperazin-1-yl)methyl)-5-(trifluoromethyl)phenyl)-4-propylpiperidine-4-carboxylic acid], the IC50 is 0.1 to 1 µM at ABHD6 [1] and ≤ 0.1 µM on MAGL [2]. Further, the inhibition at 1 µM on MAGL [2], on ABHD6 [3] and at MAGL [4] was ≥ 75% in each case.
